Results published in PubChem BioAssay AID1845205 (Molecular Pharmacology Branch, DTP, NCI, 2023).
“And” between values parts separate entries of the source, which are not always exact repeats. Equal values may be shown once.

Test system: MPNST multicellular tumor spheroids, viability % test/control
Assay: Anticancer human tumor MPNST cell line growth inhibition;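 note: spheroids exposed to agents for seven days after three days of growth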;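 for viability, T/C: luminescence signal used as surrogate for viable cell amount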
Conditions: for viability, T/C: stronger effect = lower value
Method in brief: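 Complex tumor spheroids combined malignant cells with endothelial cells and mesenchymal stem cells. DNA-damaging drugs and DNA repair inhibitors were tested alone and in combination, at half-log dilutions down from clinical Cmax (top 10 microM if Cmax unknown), 0.25% DMSO final.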

[1] = curve of first compound, second compound 0.003 µM
[2] = second compound 0.003 µM, first compound 0.0316 µM
[3] = second compound 0.003 µM, first compound 0.1 µM
[4] = second compound 0.003 µM, first compound 0.316 µM
[5] = second compound 0.003 µM, first compound 1 µM
[6] = second compound 0.003 µM, first compound 3.16 µM
[7] = second compound 0.003 µM, first compound 10 µM
[8] = curve of first compound, second compound 30 pM
[9] = curve of first compound, second compound 94.9 pM
[10] = curve of first compound, second compound 0.0003 µM
[11] = curve of first compound, second compound 0.000949 µM
[12] = second compound 30 pM, first compound 0.0316 µM
[13] = second compound 30 pM, first compound 0.1 µM
[14] = second compound 30 pM, first compound 0.316 µM
[15] = second compound 30 pM, first compound 1 µM
[16] = second compound 30 pM, first compound 3.16 µM
[17] = second compound 30 pM, first compound 10 µM
[18] = second compound 94.9 pM, first compound 0.0316 µM
[19] = second compound 94.9 pM, first compound 0.1 µM
[20] = second compound 94.9 pM, first compound 0.316 µM
[21] = second compound 94.9 pM, first compound 1 µM
[22] = second compound 94.9 pM, first compound 3.16 µM
[23] = second compound 94.9 pM, first compound 10 µM
[24] = second compound 0.0003 µM, first compound 0.0316 µM
[25] = second compound 0.0003 µM, first compound 0.1 µM
[26] = second compound 0.0003 µM, first compound 0.316 µM
[27] = second compound 0.0003 µM, first compound 1 µM
[28] = second compound 0.0003 µM, first compound 3.16 µM
[29] = second compound 0.0003 µM, first compound 10 µM
[30] = second compound 0.000949 µM, first compound 0.0316 µM
[31] = second compound 0.000949 µM, first compound 0.1 µM
[32] = second compound 0.000949 µM, first compound 0.316 µM
[33] = second compound 0.000949 µM, first compound 1 µM
[34] = second compound 0.000949 µM, first compound 3.16 µM
[35] = second compound 0.000949 µM, first compound 10 µM

Cc1cc(C)c(CNC(=O)c2cc(-c3ccc(CN4CCOCC4)cc3)cc3c2cnn3C2CCCC2)c(=O)[nH]1 + CC[C@@]1(O)C(=O)OCc2c1cc1n(c2=O)Cc2cc3c(CN(C)C)c(O)ccc3nc2-1
IC50 [1]: > 10 µM
IC50 (curve of first compound, second compound 0.00949 µM): > 10 µM
IC50 (curve of first compound, second compound 0.03 µM): > 10 µM
IC50 (curve of first compound, second compound 0.0949 µM): > 10 µM
IC50 (curve of first compound, second compound 0.3 µM): < 0.0316 µM
viability, T/C [2]: 86%
viability, T/C [3]: 79.4%
viability, T/C [4]: 88.8%
viability, T/C [5]: 83.2%
viability, T/C [6]: 93.3%
viability, T/C [7]: 87.5%
viability, T/C (second compound 0.00949 µM, first compound 0.0316 µM): 80.3%
viability, T/C (second compound 0.00949 µM, first compound 0.1 µM): 70%
viability, T/C (second compound 0.00949 µM, first compound 0.316 µM): 91%
viability, T/C (second compound 0.00949 µM, first compound 1 µM): 71.4%
viability, T/C (second compound 0.00949 µM, first compound 3.16 µM): 76.1%
viability, T/C (second compound 0.00949 µM, first compound 10 µM): 78.9%
viability, T/C (second compound 0.03 µM, first compound 0.0316 µM): 55.4%
viability, T/C (second compound 0.03 µM, first compound 0.1 µM): 54.6%
viability, T/C (second compound 0.03 µM, first compound 0.316 µM): 50%
viability, T/C (second compound 0.03 µM, first compound 1 µM): 53%
viability, T/C (second compound 0.03 µM, first compound 3.16 µM): 58.2%
viability, T/C (second compound 0.03 µM, first compound 10 µM): 68.2%
viability, T/C (second compound 0.0949 µM, first compound 0.0316 µM): 51.8%
viability, T/C (second compound 0.0949 µM, first compound 0.1 µM): 52.1%
viability, T/C (second compound 0.0949 µM, first compound 0.316 µM): 51.1%
viability, T/C (second compound 0.0949 µM, first compound 1 µM): 52.4%
viability, T/C (second compound 0.0949 µM, first compound 3.16 µM): 50.3%
viability, T/C (second compound 0.0949 µM, first compound 10 µM): 58.3%
viability, T/C (second compound 0.3 µM, first compound 0.0316 µM): 41.7%
viability, T/C (second compound 0.3 µM, first compound 0.1 µM): 41%
viability, T/C (second compound 0.3 µM, first compound 0.316 µM): 43.2%
viability, T/C (second compound 0.3 µM, first compound 1 µM): 37.8%
viability, T/C (second compound 0.3 µM, first compound 3.16 µM): 42.6%
viability, T/C (second compound 0.3 µM, first compound 10 µM): 45.4%

COc1cc(C)[nH]c(=O)c1CN1CCc2c(Cl)cc(C(OC)C3COC3)c(Cl)c2C1=O (configuration not stated) + COc1cc2c(cc1O)CCNC21CSC2c3c(OC(C)=O)c(C)c4c(c3C(COC1=O)N1C(O)C3Cc5cc(C)c(OC)c(O)c5C(C21)N3C)OCO4
IC50 [8]: > 10 µM
IC50 [9]: > 10 µM
IC50 [10]: > 10 µM
IC50 [11]: < 0.0316 µM
IC50 [1]: < 0.0316 µM
viability, T/C [12]: 73.7%
viability, T/C [13]: 77.4%
viability, T/C [14]: 74.5%
viability, T/C [15]: 84.8%
viability, T/C [16]: 81%
viability, T/C [17]: 90.3%
viability, T/C [18]: 94.7%
viability, T/C [19]: 78.4%
viability, T/C [20]: 86.4%
viability, T/C [21]: 77.5%
viability, T/C [22]: 83.2%
viability, T/C [23]: 69.9%
viability, T/C [24]: 79%
viability, T/C [25]: 68.8%
viability, T/C [26]: 91.7%
viability, T/C [27]: 82.5%
viability, T/C [28]: 69.8%
viability, T/C [29]: 60.6%
viability, T/C [30]: 47.6%
viability, T/C [31]: 46%
viability, T/C [32]: 45.3%
viability, T/C [33]: 42.8%
viability, T/C [34]: 42.6%
viability, T/C [35]: 45.4%
viability, T/C [2]: 9.08%
viability, T/C [3]: 11.7%
viability, T/C [4]: 12.8%
viability, T/C [5]: 5.61%
viability, T/C [6]: 7.75%
viability, T/C [7]: 6.1%

Cc1cc(C)c(CNC(=O)c2cc(-c3ccc(CN4CCOCC4)cc3)cc3c2cnn3C2CCCC2)c(=O)[nH]1 + COc1cc2c(cc1O)CCNC21CSC2c3c(OC(C)=O)c(C)c4c(c3C(COC1=O)N1C(O)C3Cc5cc(C)c(OC)c(O)c5C(C21)N3C)OCO4
IC50 [8]: > 10 µM
IC50 [9]: > 10 µM
IC50 [10]: > 10 µM
IC50 [11]: < 0.0316 µM
IC50 [1]: < 0.0316 µM
viability, T/C [12]: 106%
viability, T/C [13]: 93.7%
viability, T/C [14]: 85.2%
viability, T/C [15]: 101%
viability, T/C [16]: 113%
viability, T/C [17]: 99.3%
viability, T/C [18]: 104%
viability, T/C [19]: 89.8%
viability, T/C [20]: 71%
viability, T/C [21]: 102%
viability, T/C [22]: 120%
viability, T/C [23]: 68.9%
viability, T/C [24]: 86%
viability, T/C [25]: 80.3%
viability, T/C [26]: 83.3%
viability, T/C [27]: 98%
viability, T/C [28]: 91.4%
viability, T/C [29]: 70.7%
viability, T/C [30]: 41.3%
viability, T/C [31]: 53.5%
viability, T/C [32]: 46%
viability, T/C [33]: 43.6%
viability, T/C [34]: 44.3%
viability, T/C [35]: 41.6%
viability, T/C [2]: 13.1%
viability, T/C [3]: 12.2%
viability, T/C [4]: 12.1%
viability, T/C [5]: 13.5%
viability, T/C [6]: 12.6%
viability, T/C [7]: 9.87%

CNCc1ccc(-c2cc(-c3nc(-c4ccc(S(=O)(=O)C(C)C)cc4)cnc3N)on2)cc1
viability, T/C (compound 0.00949 µM): 119% and 97.4% and 89.4%
viability, T/C (compound 0.03 µM): 113% and 110% and 98.9%
viability, T/C (compound 0.0949 µM): 100% and 81.1% and 87.2%
viability, T/C (compound 0.3 µM): 74.1% and 69.5% and 55.1%
viability, T/C (compound 0.949 µM): 61.8% and 69.6% and 42.9%
viability, T/C (compound 3 µM): 65.9% and 69.1% and 43.7%
IC50 (curve of compound): > 3 µM and 0.495 µM

[2H]c1nc(C)nc([2H])c1-c1cc(NC[C@@H](C)c2cccc3c(C(=O)NC)ccnc23)ncn1 + COc1cc2c(cc1O)CCNC21CSC2c3c(OC(C)=O)c(C)c4c(c3C(COC1=O)N1C(O)C3Cc5cc(C)c(OC)c(O)c5C(C21)N3C)OCO4
IC50 [8]: > 10 µM
IC50 [9]: > 10 µM
IC50 [10]: > 10 µM
IC50 [11]: < 0.0316 µM
IC50 [1]: < 0.0316 µM
viability, T/C [12]: 83.5%
viability, T/C [13]: 71.4%
viability, T/C [14]: 73.3%
viability, T/C [15]: 97.6%
viability, T/C [16]: 72.7%
viability, T/C [17]: 88.1%
viability, T/C [18]: 94.4%
viability, T/C [19]: 83%
viability, T/C [20]: 81.6%
viability, T/C [21]: 103%
viability, T/C [22]: 99.9%
viability, T/C [23]: 78.3%
viability, T/C [24]: 78%
viability, T/C [25]: 75.8%
viability, T/C [26]: 72.5%
viability, T/C [27]: 95.7%
viability, T/C [28]: 75.8%
viability, T/C [29]: 87%
viability, T/C [30]: 48.4%
viability, T/C [31]: 40.6%
viability, T/C [32]: 42.7%
viability, T/C [33]: 43.1%
viability, T/C [34]: 42.3%
viability, T/C [35]: 42.9%
viability, T/C [2]: 9.53%
viability, T/C [3]: 12.7%
viability, T/C [4]: 8.26%
viability, T/C [5]: 12.5%
viability, T/C [6]: 9.06%
viability, T/C [7]: 8.35%
